Experimental data published in US20240025883A1, “PYRIMIDIN-2-YL SULFONAMIDE DERIVATIVES” (Hoffmann-La Roche Inc., priority 2021, published 2024).
pIC50: −log10 of the molar value.

What follows are compounds tested against human GPR17 short isoform (Homo sapiens (Human), UniProt Q13304) (assay: GPR17 cAMP assay (hGPR17 cAMP, antagonist mode against EC80 of MDL29,951)). Conditions: CHO-K1 cells stably expressing human GPR17 short isoform; EC80 of agonist MDL29,951; forskolin 15 μM.
human GPR17 short isoform, sequence (Q13304 29-367): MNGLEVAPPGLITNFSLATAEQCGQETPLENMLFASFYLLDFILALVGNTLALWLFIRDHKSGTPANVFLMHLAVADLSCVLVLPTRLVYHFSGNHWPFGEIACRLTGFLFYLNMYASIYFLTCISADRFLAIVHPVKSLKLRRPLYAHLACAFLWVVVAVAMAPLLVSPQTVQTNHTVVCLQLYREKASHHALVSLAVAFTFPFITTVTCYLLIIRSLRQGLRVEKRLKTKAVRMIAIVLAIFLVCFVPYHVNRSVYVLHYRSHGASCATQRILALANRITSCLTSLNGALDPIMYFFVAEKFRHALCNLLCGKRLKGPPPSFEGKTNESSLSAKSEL
Assay type: cell-based
Outline: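 cAMP was read by competitive TR-FRET after a 30 min room-temperature stimulation: antagonists plus EC80 MDL29,951 and 0.5 mM IBMX, followed 5 min later by 15 μM forskolin. Cells were CHO-K1 with stable human GPR17 short isoform in HBSS/HEPES/BSA, pH 7.4; percent activity versus reference antagonist fitted sigmoidally.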
`COc1nc(NS(=O)(=O)c2c[nH]c3c(CO)c(C)ccc23)ncc1CC(F)F` [Example 292, N-[5-(2,2-Difluoroethyl)-4-Methoxy-Pyrimidin-2-Yl]-6-Methyl-7-Methylol-1H-Indole-3-Sulfonamide] gave a pIC50 of 6.36. `COc1nc(NS(=O)(=O)c2c[nH]c3cc(Cl)ccc23)nc(OCF)c1Br` [Example 83, N-[5-bromo-4-(fluoromethoxy)-6-methoxy-pyrimidin-2-yl]-6-chloro-1H-indole-3-sulfonamide] was tested, and the pIC50 was 7.11. Work on `COc1nc(NS(=O)(=O)c2c[nH]c3cc(Cl)ccc23)nc(OC)c1CC(F)CF` (stereo not drawn) [Example 264, 6-chloro-N-[5-(2,3-difluoropropyl)-4,6-dimethoxy-pyrimidin-2-yl]-1H-indole-3-sulfonamide] yielded a pIC50 of 7.64. Work on `COc1nc(NS(=O)(=O)c2c[nH]c3cc(Cl)ccc23)nc(OC)c1C1CC1` [Example 69, 6-chloro-N-(5-cyclopropyl-4,6-dimethoxy-pyrimidin-2-yl)-1H-indole-3-sulfonamide] yielded a pIC50 of 7.85. Work on `COc1nc(NS(=O)(=O)c2c[nH]c3c2ccc2sncc23)ncc1CC(F)F` [Example 282, N-[5-(2,2-Difluoroethyl)-4-Methoxy-Pyrimidin-2-Yl]-1H-Pyrrolo[2,3-e][1,2]Benzothiazole-3-Sulfonamide] yielded a pIC50 of 6.96. `COc1nc(NS(=O)(=O)c2c[nH]c3c(Cl)c(F)ccc23)ncc1CC(F)F` [Example 130, 7-chloro-N-[5-(2,2-difluoroethyl)-4-methoxy-pyrimidin-2-yl]-6-fluoro-1H-indole-3-sulfonamide] showed a pIC50 of 6.41. Work on `COc1nc(NS(=O)(=O)c2c[nH]c3c(F)c(C(F)F)ccc23)nc(OC)c1OCC#N` [Example 253, N-[5-(cyanomethoxy)-4,6-dimethoxy-pyrimidin-2-yl]-6-(difluoromethyl)-7-fluoro-1H-indole-3-sulfonamide] yielded a pIC50 of 7.70. `COc1nc(NS(=O)(=O)c2c[nH]c3c(Br)c(Cl)ccc23)ncc1CCC#N` [Example 255, 7-bromo-6-chloro-N-[5-(2-cyanoethyl)-4-methoxy-pyrimidin-2-yl]-1H-indole-3-sulfonamide] was tested, and the pIC50 was 7.42. `COc1nc(NS(=O)(=O)c2c[nH]c3nc(Cl)ccc23)nc(OC)c1CC(F)CF` (stereo not drawn) [Example 289, 6-Chloro-N-[5-(2,3-Difluoropropyl)-4,6-Dimethoxy-Pyrimidin-2-Yl]-1H-Pyrrolo[2,3-b]Pyridine-3-Sulfonamide] was tested, and the pIC50 was 7.16. With `COc1nc(NS(=O)(=O)c2c[nH]c3cc(Cl)ccc23)nc(OC)c1OCC#N` [Example 265, 6-chloro-N-[5-(cyanomethoxy)-4,6-dimethoxy-pyrimidin-2-yl]-1H-indole-3-sulfonamide] the pIC50 was 7.85. With `COc1nc(NS(=O)(=O)c2c[nH]c3nc(Cl)ccc23)nc(OC)c1C` [Example 118, 6-chloro-N-(4,6-dimethoxy-5-methyl-pyrimidin-2-yl)-1H-pyrrolo[2,3-b]pyridine-3-sulfonamide] the pIC50 was 7.48. `COc1nc(NS(=O)(=O)c2csc3nc(Br)ccc23)nc(OC)c1OC(F)F` [Example 269, 6-bromo-N-[5-(difluoromethoxy)-4,6-dimethoxy-pyrimidin-2-yl]thieno[2,3-b]pyridine-3-Sulfonamide] gave a pIC50 of 6.86. `COc1nc(NS(=O)(=O)c2c[nH]c3c(Br)c(Cl)ccc23)ncc1CCC(F)F` [Example 183, 7-bromo-6-chloro-N-[5-(3,3-difluoropropyl)-4-methoxy-pyrimidin-2-yl]-1H-indole-3-sulfonamide] was tested, and the pIC50 was 7.64. `COc1nc(NS(=O)(=O)c2c[nH]c3cc(F)ccc23)nc(OC)c1CC(F)F` [Example 258, N-[5-(2,2-difluoroethyl)-4,6-dimethoxy-pyrimidin-2-yl]-6-fluoro-1H-indole-3-sulfonamide] was tested, and the pIC50 was 7.43. `COc1nc(NS(=O)(=O)c2csc3nc(Br)ccc23)nc(OC)c1CC(F)F` [Example 150, 6-bromo-N-[5-(2,2-difluoroethyl)-4,6-dimethoxy-pyrimidin-2-yl]thieno[2,3-b]pyridine-3-sulfonamide] showed a pIC50 of 7.41.
